This is an account of results in patent US9693992B2 (MannKind Corporation, priority 2010, dated 2017).

Broadly, the EC50 is the concentration giving half of the maximal effect. Low values mean a more potent agent, high ones a less potent agent.

Sequence of IRE-1α (O75460 19-977): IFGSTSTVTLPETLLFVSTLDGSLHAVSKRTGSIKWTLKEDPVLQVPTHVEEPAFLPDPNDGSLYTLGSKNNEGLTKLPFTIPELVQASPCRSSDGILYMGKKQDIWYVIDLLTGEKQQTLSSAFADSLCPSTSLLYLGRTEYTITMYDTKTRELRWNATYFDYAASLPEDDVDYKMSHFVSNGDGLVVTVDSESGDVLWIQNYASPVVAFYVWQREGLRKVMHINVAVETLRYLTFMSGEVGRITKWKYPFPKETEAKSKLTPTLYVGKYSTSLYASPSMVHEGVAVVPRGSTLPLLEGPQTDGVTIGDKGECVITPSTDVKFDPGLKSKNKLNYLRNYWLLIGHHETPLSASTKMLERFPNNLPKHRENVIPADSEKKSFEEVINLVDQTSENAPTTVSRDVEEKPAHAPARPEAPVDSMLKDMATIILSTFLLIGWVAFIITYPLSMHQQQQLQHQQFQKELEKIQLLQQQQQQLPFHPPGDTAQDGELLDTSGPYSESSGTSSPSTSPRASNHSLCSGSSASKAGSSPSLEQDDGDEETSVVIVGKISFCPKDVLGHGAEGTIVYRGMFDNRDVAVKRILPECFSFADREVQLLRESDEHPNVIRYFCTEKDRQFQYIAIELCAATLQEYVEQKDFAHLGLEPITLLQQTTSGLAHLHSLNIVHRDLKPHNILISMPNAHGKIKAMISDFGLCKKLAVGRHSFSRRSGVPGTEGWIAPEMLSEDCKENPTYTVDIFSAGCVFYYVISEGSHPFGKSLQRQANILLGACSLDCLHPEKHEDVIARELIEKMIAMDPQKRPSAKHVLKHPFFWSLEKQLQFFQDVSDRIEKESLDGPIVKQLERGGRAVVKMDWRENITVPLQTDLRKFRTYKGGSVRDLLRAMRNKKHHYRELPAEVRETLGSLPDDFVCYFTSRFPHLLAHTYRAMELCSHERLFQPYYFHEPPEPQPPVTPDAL

The assay deals with IRE-1α (Homo sapiens (Human), UniProt O75460). The assay can be described thus: Cellular EC50: endogenous XBP-1 splicing in myeloma cells (MM.1s, DTT stress, RT-PCR). Format: cell-based. The note with it: average cellular EC50, XBP-1 splicing in myeloma cells. On the procedure:
Human myeloma MM.1s cells are incubated with a compound for 1.25 hours before stressing the cells with 2 mM dithiothreitol (DTT). After an additional 45 minutes (2 hours total) with compound and DTT, the cells are harvested with TRIZOL® (a mono-phasic solution of phenol and guanidine isothiocyanate), and total RNA is prepared as directed by the manufacturer (Invitrogen). Human XBP-1 is amplified by RT-PCR with the following primers, which flank the 26 base unconventional intron excised by IRE-1α:
RT-PCR of unstressed (U) cells then generates the upper band. When cells are stressed (S) with the endoplasmic reticulum (ER) stressing agent DTT, IRE-1α is activated due to accumulating unfolded protein and the resulting RT-PCR product is 26 base pairs shorter.
Compounds which pass specificity assays are assayed for cellular EC50 using endogenous XBP-1 splicing in myeloma cells. XBP-1 is regulated through the excision of a 26 nucleotide intron from the XBP-1 mRNA by the highly specific endoribonuclease activity of IRE-1α. […] This splicing event is used to measure IRE-1α activity on XBP-1 mRNA in cells and tissues.
Briefly, compounds are incubated in the presence or absence of an ER stress agent (e.g., DTT), and the ratio of XBP-1u (unspliced) to XBP-1s (spliced) is quantified by RT-PCR. The ED50 is determined as the 50% XBP-1s to total XPB-1 levels.
In turn, `COCCOc1cc(O)c(C=O)c2oc(=O)c(CC(=O)NCCN(C)C)c(C)c12` [Example 164] registered an EC50 of over 10 µM.

`COCCOc1cc(O)c(C=O)c2oc(=O)c(C)c(C)c12` [Example 165] displayed an EC50 of under 10 µM.

Compound `COCCNC(=O)Cc1c(C)c2cc(OC)c(O)c(C=O)c2oc1=O` [Example 166] registered an EC50 of under 10 µM.

`COc1cc2c(C)c(CC(=O)N3CCN(C)CC3)c(=O)oc2c(C=O)c1O` [Example 168]: the EC50 is under 10 µM.

Take `CCNC(=O)Cc1c(C)c2cc(OC)c(O)c(C=O)c2oc1=O` [Example 169]: the EC50 was under 10 µM.

`COc1cc2c(C)c(CC(=O)NCCN(C)C)c(=O)oc2c(C=O)c1O` [Example 170] returned an EC50 of under 10 µM.

`COCCNC(=O)CCc1c(C)c2cc(OC)c(O)c(C=O)c2oc1=O` [Example 171] gave an EC50 of under 10 µM.

`COc1cc2c(C)c(CCC(=O)N3CCOCC3)c(=O)oc2c(C=O)c1O` [Example 172]: the EC50 is under 10 µM.

`COc1cc2c(C)c(CCC(=O)N3CCN(C)CC3)c(=O)oc2c(C=O)c1O` [Example 173] showed an EC50 of under 10 µM.

As for `CCNC(=O)CCc1c(C)c2cc(OC)c(O)c(C=O)c2oc1=O` [Example 174], the EC50 was under 10 µM.

In the case of `COc1cc2c(C)c(CCC(=O)NCCN(C)C)c(=O)oc2c(C=O)c1O` [Example 175], the EC50 was over 10 µM.

With `COCCNC(=O)Cc1c(C)c2c(OC)cc(O)c(C=O)c2oc1=O` [Example 176], the EC50 was under 10 µM.

For `COc1cc(O)c(C=O)c2oc(=O)c(CC(=O)N3CCOCC3)c(C)c12` [Example 177], the EC50 is under 10 µM.

The compound `COc1cc(O)c(C=O)c2oc(=O)c(CC(=O)N3CCN(C)CC3)c(C)c12` [Example 178] gave an EC50 of under 10 µM.

In turn, `COc1cc(O)c(C=O)c2oc(=O)c(CC(=O)NCCN3CCOCC3)c(C)c12` [Example 179] gave an EC50 of under 10 µM.

Consider `COc1cc(O)c(C=O)c2oc(=O)c(CC(=O)NCCN(C)C)c(C)c12` [Example 180], for which the EC50 was under 10 µM.

Consider `COCCOc1cc2c(C)c(CCC(=O)N3CCOCC3)c(=O)oc2c(C=O)c1O` [Example 181], for which the EC50 was under 10 µM.

`COCCOc1cc2c(C)c(CCC(=O)N3CCN(C)CC3)c(=O)oc2c(C=O)c1O` [Example 182] showed an EC50 of under 10 µM.

`CCNC(=O)CCc1c(C)c2cc(OCCOC)c(O)c(C=O)c2oc1=O` [Example 183] gave an EC50 of under 10 µM.

`COCCNC(=O)CCc1c(C)c2cc(OCCOC)c(O)c(C=O)c2oc1=O` [Example 184] returned an EC50 of under 10 µM.

`COCCOc1cc2c(C)c(CCC(=O)NCCN(C)C)c(=O)oc2c(C=O)c1O` [Example 185]: the EC50 was over 10 µM.

In turn, `COCCOc1cc2c(C)c(CCC(=O)NCCN3CCOCC3)c(=O)oc2c(C=O)c1O` [Example 186] showed an EC50 of over 10 µM.

On to `COCCOc1cc2c(C)c(CC(=O)NCCN3CCOCC3)c(=O)oc2c(C=O)c1O` [Example 187], for which the EC50 is under 10 µM.

Compound `COCCOc1cc2c(C)c(CC(=O)N3CCOCC3)c(=O)oc2c(C=O)c1O` [Example 188] gave an EC50 of under 10 µM.

Consider `COCCOc1cc2c(C)c(CC(=O)N3CCN(C)CC3)c(=O)oc2c(C=O)c1O` [Example 189], for which the EC50 is under 10 µM.

In turn, `COCCNC(=O)Cc1c(C)c2cc(OCCOC)c(O)c(C=O)c2oc1=O` [Example 190] displayed an EC50 of under 10 µM.

For the compound `CCNC(=O)Cc1c(C)c2cc(OCCOC)c(O)c(C=O)c2oc1=O` [Example 191], the EC50 was under 10 µM.

`COc1cc(O)c(C=O)c2oc(=O)c(CCC(=O)N3CCOCC3)c(C)c12` [Example 192]: the EC50 was under 10 µM.

Consider `COc1cc(O)c(C=O)c2oc(=O)c(CCC(=O)N3CCN(C)CC3)c(C)c12` [Example 193], for which the EC50 is under 10 µM.

Take `COCCNC(=O)CCc1c(C)c2c(OC)cc(O)c(C=O)c2oc1=O` [Example 194]: the EC50 is under 10 µM.

`COc1cc(O)c(C=O)c2oc(=O)c(CCC(=O)NCCN(C)C)c(C)c12` [Example 195] had an EC50 of under 10 µM.

`COc1cc(O)c(C=O)c2oc(=O)c(CCC(=O)NCCN3CCOCC3)c(C)c12` [Example 196] displayed an EC50 of under 10 µM.

Turning to `COc1cc2c(C(F)(F)F)cc(=O)oc2c(C=O)c1O` [Example 197], the EC50 is under 10 µM.

For the compound `COc1cc2c3c(c(=O)oc2c(C=O)c1O)CCC3` [Example 198], the EC50 was under 10 µM.

`COc1cc2c(C)c(C)c(=O)oc2c(C=O)c1O` [Example 199]: the EC50 was over 10 µM.

`COc1cc2c(C)c(C(C)C)c(=O)oc2c(C=O)c1O` [Example 200] registered an EC50 of over 10 µM.

`Cc1c(CCC(=O)NCCN2CCOCC2)c(=O)oc2c(C=O)c(O)ccc12` [Example 201]: the EC50 is under 10 µM.

Compound `COCCNC(=O)CCc1c(C)c2cc(OCCN3CCOCC3)c(O)c(C=O)c2oc1=O` [Example 202] showed an EC50 of over 10 µM.

Turning to `Cc1c(C)c2cc(OCCN3CCOCC3)c(O)c(C=O)c2oc1=O` [Example 203], the 50% effective concentration (EC50) was under 10 µM.

For the compound `CCNC(=O)CCc1c(C)c2cc(OCCN3CCOCC3)c(O)c(C=O)c2oc1=O` [Example 204], the EC50 was over 10 µM.

The compound `COCCNC(=O)Cc1c(C)c2cc(OCCN3CCOCC3)c(O)c(C=O)c2oc1=O` [Example 205] displayed an EC50 of 10 µM.

`Cc1c(CC(=O)N2CCOCC2)c(=O)oc2c(C=O)c(O)c(OCCN3CCOCC3)cc12` [Example 206] displayed an EC50 of 10 µM. That is a double-digit micromolar value.

In the case of `COc1cc2c(=O)c(CC(=O)N3CCOCC3)c(C)oc2c(C=O)c1O` [Example 207], the EC50 is over 10 µM.

`COc1cc2c(=O)c(CC(=O)N3CCN(C)CC3)c(C)oc2c(C=O)c1O` [Example 208] showed an EC50 of over 10 µM.

For `CCNC(=O)Cc1c(C)oc2c(C=O)c(O)c(OC)cc2c1=O` [Example 209], the EC50 is under 10 µM.

In the case of `COc1cc2c(=O)c(CC(=O)NCCN3CCOCC3)c(C)oc2c(C=O)c1O` [Example 210], the EC50 was over 10 µM.

Compound `COc1cc2c(=O)c(CC(=O)NCCN(C)C)c(C)oc2c(C=O)c1O` [Example 211] displayed an EC50 of over 10 µM.

Compound `COCCNC(=O)CCc1c(C)oc2c(C=O)c(O)c(OC)cc2c1=O` [Example 212] came in with an EC50 of over 10 µM.

`CCNC(=O)CCc1c(C)oc2c(C=O)c(O)c(OC)cc2c1=O` [Example 213]: the EC50 was over 10 µM.

The compound `COc1cc2c(=O)c(CCC(=O)NCCN(C)C)c(C)oc2c(C=O)c1O` [Example 214] yielded an EC50 of over 10 µM.

Compound `COCCNC(=O)CCc1c(C)oc2c(C=O)c(O)ccc2c1=O` [Example 215] displayed an EC50 of under 10 µM.

Consider `Cc1oc2c(C=O)c(O)ccc2c(=O)c1CCC(=O)N1CCOCC1` [Example 216], for which the EC50 is under 10 µM.

`CCNC(=O)CCc1c(C)oc2c(C=O)c(O)ccc2c1=O` [Example 217] displayed an EC50 of under 10 µM.

`Cc1oc2c(C=O)c(O)ccc2c(=O)c1CCC(=O)NCCN(C)C` [Example 218]: the EC50 was over 10 µM.

The compound `Cc1oc2c(C=O)c(O)ccc2c(=O)c1CCC(=O)NCCN1CCOCC1` [Example 219] returned an EC50 of over 10 µM.

`COCCNC(=O)Cc1c(C)oc2c(C=O)c(O)ccc2c1=O` [Example 220] showed a 50% effective concentration (EC50) of under 10 µM.

The compound `Cc1oc2c(C=O)c(O)ccc2c(=O)c1CC(=O)N1CCOCC1` [Example 221] yielded an EC50 of over 10 µM.

`Cc1oc2c(C=O)c(O)ccc2c(=O)c1CC(=O)N1CCN(C)CC1` [Example 222] returned an EC50 of under 10 µM.

For `CCNC(=O)Cc1c(C)oc2c(C=O)c(O)ccc2c1=O` [Example 223], the EC50 is under 10 µM.

As to `Cc1oc2c(C=O)c(O)ccc2c(=O)c1CC(=O)NCCN(C)C` [Example 224], the EC50 was over 10 µM.

In turn, `Cc1oc2c(C=O)c(O)ccc2c(=O)c1CC(=O)NCCN1CCOCC1` [Example 225] gave an EC50 of over 10 µM.

On to `COCCNC(=O)Cc1c(C)oc2c(C=O)c(O)cc(OC)c2c1=O` [Example 226], for which the EC50 was under 10 µM.

On to `COc1cc(O)c(C=O)c2oc(C)c(CC(=O)N3CCOCC3)c(=O)c12` [Example 227], for which the EC50 was under 10 µM.

Take `CCNC(=O)Cc1c(C)oc2c(C=O)c(O)cc(OC)c2c1=O` [Example 228]: the concentration giving a half-maximal response (EC50) was under 10 µM.

The compound `Cn1c(CCC(=O)N2CCOCC2)nc2ccc(O)c(C=O)c21` [Example 229] came in with an EC50 of over 10 µM.

In turn, `CCNC(=O)CCc1nc2c(C=O)c(O)ccc2n1C` [Example 230] registered an EC50 of over 10 µM.

`COCCNC(=O)CCc1nc2c(C=O)c(O)ccc2[nH]1` [Example 231] showed an EC50 of over 10 µM.

For the compound `O=Cc1c(O)ccc2[nH]c(CCC(=O)N3CCOCC3)nc12` [Example 232], the EC50 was over 10 µM.

With `CN1CCC(NC(=O)CCc2nc3c(C=O)c(O)ccc3[nH]2)CC1` [Example 233], the EC50 is under 10 µM.

`CCNC(=O)CCc1nc2c(C=O)c(O)ccc2[nH]1` [Example 234] showed an EC50 of over 10 µM.

`O=Cc1c(O)ccc2nc(CCC(=O)NCCN3CCOCC3)[nH]c12` [Example 235] gave an EC50 of over 10 µM.

Regarding `CN(C)CCNC(=O)CCc1nc2c(C=O)c(O)ccc2[nH]1` [Example 236], the EC50 was over 10 µM.

Consider `COCCNC(=O)CCc1nc2ccc(O)c(C=O)c2n1C` [Example 237], for which the EC50 was over 10 µM.

With `Cn1c(CCC(=O)NCCN2CCOCC2)nc2ccc(O)c(C=O)c21` [Example 238], the EC50 is over 10 µM.

As for `CN1CCN(C(=O)CCc2nc3ccc(O)c(C=O)c3n2C)CC1` [Example 239], the EC50 was over 10 µM.
